From PubChem BioAssay (NCI)
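48-hour exposure; five concentrations; linearly interpolated endpoints. TGI is the concentration that stops growth completely.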 Where a SMILES comes first, the peptide text is derived from it. The star is where a group is joined. Cbz = O=C(OCc1ccccc1)*; NHNH2 = NN*

What was measured:
Experiment in all cases: DTP human tumour cell line panel, 48 h
COLO 205 colon = system: COLO 205 colon
HL-60(TB) leukemia = system: HL-60(TB) leukemia
HOP-62 NSCLC = system: HOP-62 NSCLC
MOLT-4 leukemia = system: MOLT-4 leukemia
NCI-H460 lung = system: NCI-H460 lung
OVCAR-8 ovarian = system: OVCAR-8 ovarian
SK-MEL-2 melanoma = system: SK-MEL-2 melanoma
TK-10 renal = system: TK-10 renal
UACC-62 melanoma = system: UACC-62 melanoma
UO-31 renal = system: UO-31 renal

Measured: TGI

CCOC(=O)CCC(NC(=O)OCc1ccccc1)C(=O)NC(CCC(=O)OCC)C(=O)NN (stereo not given) (Cbz-Glu(OEt)-Glu(OEt)-NHNH2; configuration not given here)
> 100 µM: COLO 205 colon | HL-60(TB) leukemia | HOP-62 NSCLC | MOLT-4 leukemia | NCI-H460 lung | OVCAR-8 ovarian | SK-MEL-2 melanoma | TK-10 renal | UACC-62 melanoma | UO-31 renal

COc1ccc2nc3n(c2c1)C(=O)c1ccccc1-3
> 100 µM: COLO 205 colon | HL-60(TB) leukemia | HOP-62 NSCLC | MOLT-4 leukemia | NCI-H460 lung | OVCAR-8 ovarian | SK-MEL-2 melanoma | TK-10 renal | UACC-62 melanoma | UO-31 renal

CCOC(=O)C(C)c1nc2ccc(C(F)(F)F)cc2[nH]c1=O (stereo not given)
> 100 µM: COLO 205 colon | HL-60(TB) leukemia | HOP-62 NSCLC | MOLT-4 leukemia | NCI-H460 lung | OVCAR-8 ovarian | SK-MEL-2 melanoma | TK-10 renal | UACC-62 melanoma | UO-31 renal

C=CCCCCOC1C=CC(O)C(CO)O1 (stereo not given)
> 100 µM: COLO 205 colon | HL-60(TB) leukemia | HOP-62 NSCLC | MOLT-4 leukemia | NCI-H460 lung | OVCAR-8 ovarian | SK-MEL-2 melanoma | TK-10 renal | UACC-62 melanoma | UO-31 renal
